For series [1] the following is noted: DSC. (In general: DSC measures the heat that a sample takes up or gives off during a temperature scan.)
Series [2] can be described thus: Molar enthalpy of transition or fusion. Conditions: DSC.

The record followed here is the NIST ThermoML archive (doi:10.1016/j.jct.2015.06.019).

Numbers after ± are expanded uncertainties.

On to `COC(=O)[C@H](c1ccccc1Cl)N1CCc2sccc2C1.O=S(=O)(O)O` [(S)-(+)-Clopidogrel hydrogen sulfate], for which the Triple point temperature in series [1] (Crystal 1) amounted to 458.4 ± 1 K; in series [1] (Crystal 2), 454.7 ± 1 K. For the same molecule, the “Molar enthalpy of transition or fusion” value was determined as 33.4 ± 1.4 kJ/mol in series [2] (Crystal 1) and 38 ± 1.6 kJ/mol in series [2] (Crystal 2).
